Measured values: ChEMBL document CHEMBL4411274, “Recent advances of tetrazole derivatives as potential anti-tubercular and anti-malarial agents” (Eur J Med Chem, 2019)
≈ marks a conversion by molar mass, not a printed value.

Legend:
[1] = test system: Mycobacterium tuberculosis; assay: Antibacterial activity against Mycobacterium tuberculosis H37Rv by resazurin dye-based assay; type: functional
Plasmodium falciparum [2] = assay: Antimalarial activity against Plasmodium falciparum K2 infected in human erythrocytes assessed as parasitemia after 48 hrs by YOYO-1 staining-based flow cytometric analysis; type: functional, organism-based; conditions: K2, 48 h
Falcipain 2 = biological target: T1, Falcipain 2 (Plasmodium falciparum, UniProt Q9N6S8); assay: Inhibition of Plasmodium falciparum falcipain-2 preincubated for 30 mins followed by Z-Leu-Arg-AMC substrate addition and measured up to 15 mins by spectrofluorometric analysis
T1 sequence (Q9N6S8 whole entry): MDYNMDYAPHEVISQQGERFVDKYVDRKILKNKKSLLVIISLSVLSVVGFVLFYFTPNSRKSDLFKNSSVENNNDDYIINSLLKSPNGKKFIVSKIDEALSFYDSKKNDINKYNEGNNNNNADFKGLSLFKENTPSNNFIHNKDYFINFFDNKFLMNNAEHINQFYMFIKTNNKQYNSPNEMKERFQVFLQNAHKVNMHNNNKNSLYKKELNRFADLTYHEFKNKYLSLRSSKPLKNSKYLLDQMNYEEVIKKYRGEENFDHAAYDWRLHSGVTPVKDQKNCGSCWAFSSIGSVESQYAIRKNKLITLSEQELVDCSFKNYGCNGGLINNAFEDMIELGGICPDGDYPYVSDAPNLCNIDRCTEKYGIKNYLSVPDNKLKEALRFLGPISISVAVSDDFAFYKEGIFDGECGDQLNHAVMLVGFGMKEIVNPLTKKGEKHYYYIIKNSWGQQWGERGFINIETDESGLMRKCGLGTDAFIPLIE

[3] = biological target: T2, Cysteine protease falcipain-3 (Plasmodium falciparum, UniProt Q9NAW4); assay: Inhibition of Plasmodium falciparum falcipain-3 preincubated for 30 mins followed by Z-Leu-Arg-AMC substrate addition and measured up to 15 mins by spectrofluorometric analysis
T2 sequence (Q9NAW4 whole entry): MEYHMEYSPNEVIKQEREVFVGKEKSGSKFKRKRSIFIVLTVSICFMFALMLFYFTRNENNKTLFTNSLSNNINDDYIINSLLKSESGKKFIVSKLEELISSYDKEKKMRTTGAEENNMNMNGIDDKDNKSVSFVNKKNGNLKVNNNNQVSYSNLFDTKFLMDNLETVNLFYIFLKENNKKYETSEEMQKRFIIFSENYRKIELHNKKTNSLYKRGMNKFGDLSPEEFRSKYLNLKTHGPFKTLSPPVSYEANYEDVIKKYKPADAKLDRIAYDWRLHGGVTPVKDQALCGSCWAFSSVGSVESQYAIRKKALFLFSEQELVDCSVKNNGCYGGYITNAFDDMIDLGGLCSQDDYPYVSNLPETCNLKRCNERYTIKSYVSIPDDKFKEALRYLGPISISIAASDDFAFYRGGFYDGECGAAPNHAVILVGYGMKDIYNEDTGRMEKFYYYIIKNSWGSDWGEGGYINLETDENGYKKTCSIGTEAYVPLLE

[4] = test system: Mycobacterium tuberculosis; assay: Antibacterial activity against Mycobacterium tuberculosis H37Rv by MABA; type: functional
CHO-K1 = assay: Cytotoxicity against CHOK1 cells after 24 hrs by MTT assay; type: cell-based; conditions: Cricetulus griseus, CHO-K1, 24 h
Plasmodium falciparum [5] = assay: Antimalarial activity against ring-stage multidrug-resistant Plasmodium falciparum Dd2 preincubated for 6 hrs followed by compound wash and measured after 66 hrs by Giemsa-staining based light microscopic analysis; type: functional, organism-based
Plasmodium falciparum [6] = assay: Antimalarial activity against ring-stage chloroquine-susceptible Plasmodium falciparum 3D7 preincubated for 6 hrs followed by compound wash and measured after 66 hrs by Giemsa-staining based light microscopic analysis; type: functional, organism-based
Mycobacterium kansasii [7] = assay: Antibacterial activity against Mycobacterium kansasii isolate 6509/96; type: functional
Mycobacterium avium = assay: Antibacterial activity against Mycobacterium avium CNCTC My 330/88; type: functional
Mycobacterium kansasii [8] = assay: Antibacterial activity against Mycobacterium kansasii CNCTC My 235/80; type: functional
[9] = test system: Mycobacterium tuberculosis; assay: Antibacterial activity against Mycobacterium tuberculosis CNCTC My 331/88; type: functional

## COc1ccc(C2C(Cl)C(=O)N2NC(=O)Cn2nnnc2-c2ccccc2)cc1 (centres undefined)
[1]
  MIC: 0.156 µg/mL (≈ 0.378 µM)

## Cc1cc(NC(=O)Cn2nnc(-c3ccc(N)cc3)n2)no1
Plasmodium falciparum [2]
  IC50: > 10 µM
Falcipain 2
  IC50: 6.67 to 43.9 µM
[3]
  IC50: 6.67 to 43.9 µM

## Cc1ccc(C2C(Cl)C(=O)N2NC(=O)Cn2nnnc2-c2ccccc2)cc1 (centres undefined)
[1]
  MIC: > 6.25 µg/mL

## COc1cc(-c2nnnn2S(=O)(=O)c2ccc(Br)s2)ccc1OCC(O)(Cn1cncn1)c1ccc(F)cc1F (centres undefined)
[4]
  MIC: 1.56 µg/mL (≈ 2.38 µM)
CHO-K1
  IC50: > 150 µg/mL

## COc1cc(-c2nnnn2S(=O)(=O)c2ccc(OC(F)(F)F)cc2)ccc1OCC(O)(Cn1cncn1)c1ccc(Cl)cc1Cl (centres undefined)
[4]
  MIC: 1.56 to 12.5 µg/mL (≈ 2.27 to 18.2 µM)
CHO-K1
  IC50: > 150 µg/mL

## C1C2CC3CC1CC(C2)C31OOC2(CCC(Nc3nnn[nH]3)CC2)OO1 (centres undefined)
Plasmodium falciparum [5]
  IC50: 0.0435 µM
Plasmodium falciparum [6]
  IC50: 0.063 µM

## COc1cc(-c2nnnn2S(=O)(=O)c2ccc(OC(F)(F)F)cc2)ccc1OCC(O)(Cn1cncn1)c1ccc(F)cc1F (centres undefined)
CHO-K1
  IC50: > 150 µg/mL

## COc1ccc(C(=O)Nc2ccc(-c3nnn(CC(=O)Nc4cc(C)on4)n3)cc2)cc1
Plasmodium falciparum [2]
  IC50: > 10 µM
Falcipain 2
  IC50: 6.67 to 43.9 µM
[3]
  IC50: 6.67 to 43.9 µM

## c1ccc(-n2nnnc2OCC2CCC3(CC2)OOC2(O3)C3CC4CC(C3)CC2C4)cc1 (centres undefined)
Plasmodium falciparum [5]
  IC50: 0.0021 to 0.0244 µM
Plasmodium falciparum [6]
  IC50: 0.0021 to 0.0244 µM

## COc1ccc(S(=O)(=O)n2nnnc2-c2ccc(OCC(O)(Cn3cncn3)c3ccc(F)cc3F)c(OC)c2)cc1 (centres undefined)
[4]
  MIC: 1.56 µg/mL (≈ 2.6 µM)
CHO-K1
  IC50: > 150 µg/mL

## COc1cc(-c2nnnn2S(=O)(=O)c2ccccc2)ccc1OCC(O)(Cn1cncn1)c1ccc(F)cc1F (centres undefined)
[4]
  MIC: 3.12 µg/mL (≈ 5.48 µM)
CHO-K1
  IC50: > 150 µg/mL

## COc1ccc(C(=O)Cn2nnc(-c3ccccc3NC(=O)c3ccncc3)n2)cc1
Plasmodium falciparum [2]
  IC50: > 10 µM
Falcipain 2
  IC50: 6.67 to 43.9 µM
[3]
  IC50: 6.67 to 43.9 µM

## COc1cc(-c2nnnn2S(=O)(=O)c2ccc(F)cc2)ccc1OCC(O)(Cn1cncn1)c1ccc(Cl)cc1Cl (centres undefined)
[4]
  MIC: 1.56 to 12.5 µg/mL (≈ 2.51 to 20.1 µM)
CHO-K1
  IC50: > 150 µg/mL

## COc1cc(-c2nnnn2S(=O)(=O)c2ccc(C)cc2)ccc1OCC(O)(Cn1cncn1)c1ccc(Cl)cc1Cl (centres undefined)
[4]
  MIC: 1.56 to 12.5 µg/mL (≈ 2.53 to 20.3 µM)
CHO-K1
  IC50: > 150 µg/mL

## Cc1cc(NC(=O)Cn2nnc(-c3ccccc3NC(=O)c3ccccc3F)n2)no1
Plasmodium falciparum [2]
  IC50: > 10 µM
Falcipain 2
  IC50: 6.67 to 43.9 µM
[3]
  IC50: 6.67 to 43.9 µM

## COc1cc(-c2nnnn2S(=O)(=O)c2ccc(C)cc2)ccc1OCC(O)(Cn1cncn1)c1ccc(F)cc1F (centres undefined)
CHO-K1
  IC50: > 150 µg/mL

## Cc1ccc(-n2nnnc2SCc2ccccc2)cc1
Mycobacterium kansasii [7]
  MIC: 8 to 250 µg/mL (≈ 28.3 to 885 µM)
Mycobacterium avium
  MIC: 8 to 250 µg/mL (≈ 28.3 to 885 µM)
Mycobacterium kansasii [8]
  MIC: 8 to 250 µg/mL (≈ 28.3 to 885 µM)
[9]
  MIC: 8 to 250 µg/mL (≈ 28.3 to 885 µM)

## COc1cc(-c2nnnn2S(=O)(=O)c2ccc(Br)cc2)ccc1OCC(O)(Cn1cncn1)c1ccc(Cl)cc1Cl (centres undefined)
[4]
  MIC: 1.56 to 12.5 µg/mL (≈ 2.29 to 18.3 µM)
CHO-K1
  IC50: > 150 µg/mL

## C[C@@H]1CC[C@H]2[C@@H](C)C(=O)O[C@@H]3O[C@@]4(C)CC[C@@H]1[C@]32OO4 [ARTEMISININ]
Plasmodium falciparum [5]
  IC50: 0.0025 µM
Plasmodium falciparum [6]
  IC50: 0.004 µM

## Clc1ccc(-n2nnnc2SCc2ccccc2)cc1
Mycobacterium kansasii [7]
  MIC: 8 to 250 µg/mL (≈ 26.4 to 826 µM)
Mycobacterium avium
  MIC: 8 to 250 µg/mL (≈ 26.4 to 826 µM)
Mycobacterium kansasii [8]
  MIC: 8 to 250 µg/mL (≈ 26.4 to 826 µM)
[9]
  MIC: 8 to 250 µg/mL (≈ 26.4 to 826 µM)

## O=C(Cn1nnnc1-c1ccccc1)NN1C(=O)C(Cl)C1c1ccc(Br)cc1 (centres undefined)
[1]
  MIC: > 6.25 µg/mL

## C[C@H]1[C@@H](O)O[C@@H]2O[C@@]3(C)CC[C@H]4[C@H](C)CC[C@@H]1[C@@]24OO3 [ARTENIMOL]
Plasmodium falciparum [5]
  IC50: 0.0042 µM
Plasmodium falciparum [6]
  IC50: 0.0047 µM

## COc1ccc(NC(=O)Cn2nnc(-c3ccccc3NS(=O)(=O)c3ccc(NC(C)=O)cc3)n2)cc1
Plasmodium falciparum [2]
  IC50: > 10 µM
Falcipain 2
  IC50: 6.67 to 43.9 µM
[3]
  IC50: 6.67 to 43.9 µM

## Sc1nnnn1-c1ccccc1
Mycobacterium kansasii [7]
  MIC: 250 to 500 µg/mL (≈ 1400 to 2810 µM)
Mycobacterium avium
  MIC: 250 to 500 µg/mL (≈ 1400 to 2810 µM)
Mycobacterium kansasii [8]
  MIC: 250 to 500 µg/mL (≈ 1400 to 2810 µM)
[9]
  MIC: 250 to 500 µg/mL (≈ 1400 to 2810 µM)

## COc1cc(-c2nnnn2S(=O)(=O)c2ccccc2)ccc1OCC(O)(Cn1cncn1)c1ccc(Cl)cc1Cl (centres undefined)
[4]
  MIC: 25 µg/mL (≈ 41.5 µM)
CHO-K1
  IC50: > 150 µg/mL

## c1ccc(CSc2nnnn2-c2ccccc2)cc1
Mycobacterium kansasii [7]
  MIC: 8 to 250 µg/mL (≈ 29.8 to 932 µM)
Mycobacterium avium
  MIC: 8 to 250 µg/mL (≈ 29.8 to 932 µM)
Mycobacterium kansasii [8]
  MIC: 8 to 250 µg/mL (≈ 29.8 to 932 µM)
[9]
  MIC: 8 to 250 µg/mL (≈ 29.8 to 932 µM)

## C[C@]12CC[C@@H]3c4ccc(OCCCCCCCSc5nnnn5-c5ccc(Cl)cc5)cc4CC[C@H]3[C@@H]1CCC2=O
Mycobacterium kansasii [7]
  MIC: ≥ 500 µg/mL
Mycobacterium avium
  MIC: ≥ 500 µg/mL
Mycobacterium kansasii [8]
  MIC: ≥ 500 µg/mL
[9]
  MIC: ≥ 500 µg/mL
